Results reported in patent US7893025B2, “Use of growth hormone releasing factor analogs in treating patients suffering from wasting” (Theratechnolgies Inc., priority 2003, dated 2011).

Test: Adverse events and safety laboratory parameters; discontinuations
Type: in vivo, human
Conditions: 2 mg group, following 1 month of treatment
Protocol: The results presented herein were obtained from a multicentre, randomized, double-blind, placebo-controlled study. The compound TH9507 was administered by subcutaneous injection daily (1 or 2 mg dose) for a three-month period. Patients were of both genders, aged 50 years or older, with stable COPD as per the 1995 American Thoracic Society criteria.
Adverse events and safety laboratory parameters (haematology, biochemistry, urinalysis) were measured using standard laboratory methods.

CC/C=C/CC(=O)N[C@@H](Cc1ccc(O)cc1)C(=O)N[C@@H](C)C(=O)N[C@@H](CC(=O)O)C(=O)N[C@@H](C)C(=O)N[C@H](C(=O)N[C@@H](Cc1ccccc1)C(=O)N[C@H](C(=O)N[C@@H](CC(N)=O)C(=O)N[C@@H](CO)C(=O)N[C@@H](Cc1ccc(O)cc1)C(=O)N[C@@H](CCCNC(=N)N)C(=O)N[C@@H](CCCCN)C(=O)N[C@H](C(=O)N[C@@H](CC(C)C)C(=O)NCC(=O)N[C@@H](CCC(N)=O)C(=O)N[C@@H](CC(C)C)C(=O)N[C@@H](CO)C(=O)N[C@@H](C)C(=O)N[C@@H](CCCNC(=N)N)C(=O)N[C@@H](CCCCN)C(=O)N[C@@H](CC(C)C)C(=O)N[C@@H](CC(C)C)C(=O)N[C@@H](CCC(N)=O)C(=O)N[C@@H](CC(=O)O)C(=O)N[C@H](C(=O)N[C@@H](CCSC)C(=O)N[C@@H](CO)C(=O)N[C@@H](CCCNC(=N)N)C(=O)N[C@@H](CCC(N)=O)C(=O)N[C@@H](CCC(N)=O)C(=O)NCC(=O)N[C@@H](CCC(=O)O)C(=O)N[C@@H](CO)C(=O)N[C@@H](CC(N)=O)C(=O)N[C@@H](CCC(N)=O)C(=O)N[C@@H](CCC(=O)O)C(=O)N[C@@H](CCCNC(=N)N)C(=O)NCC(=O)N[C@@H](C)C(=O)N[C@@H](CCCNC(=N)N)C(=O)N[C@@H](C)C(=O)N[C@@H](CCCNC(=N)N)C(=O)N[C@@H](CC(C)C)C(N)=O)[C@@H](C)CC)C(C)C)[C@@H](C)O)[C@@H](C)CC [TH9507, (hexenoyl trans-3)hGRF(1-44)NH2]
Discontinuation possibly related to study drug: one patient in the 2 mg group who showed elevated creatine phosphokinase (CPK) and serum glutamic oxaloacetic transaminase (SGOT) values
